# Article PMC5862576, “Mitochondrial fission as a driver of stemness in tumor cells: mDIVI1 inhibits mitochondrial function, cell migration and cancer stem cell (CSC) signalling” (Oncotarget, 2018)
# Legend:
# MCF7 cells [1] = experiment: PrestoBlue viability assay; format: cell-based, Human
# Protocol: Cell viability was measured using the resazurin-based PrestoBlue reagent (A-13261, ThermoFisher Scientific). Briefly, 5 × 10^3 MCF7 cells were seeded into 96-well black plates. When cells were attached mDIVI1 or vehicle were added to the cells. After 2 or 5 days, PrestoBlue reagent was added to the cells and incubated for 2 hours. Plates were finally read using a FluoStar Omega plate reader (BMG Labtech) at an excitation wavelength of 544 and an emission wavelength of 590 nm. Background measurements were subtracted from all values.
# MCF7 cells [2] = experiment: Bradford assay (protein content); format: cell-based, Human
# Protocol: Extracellular acidification rate (ECAR) and oxygen consumption rate (OCR) were measured in a XF96 Extracellular Flux Analyzer (Seahorse Biosciences). Briefly, 1 × 10^4 MCF7 cells per well were seeded in XF96 plates and incubated with complete medium. When cells were attached, mDIVI1 and vehicle treatments were added. Six replicates were run for each condition. After 48 hours, un-buffered DMEM XF medium supplemented with 2 mM glutamine (pH 7.4) was added to the cells, and placed in a 37° C CO2-free incubator for 1 hour. Ten mM glucose, 1 μM oligomycin and 100 mM 2-deoxyglucose (2-DG) were injected into the media at different time points and ECAR was measured. Likewise, ECAR and OCR were quantified using un-buffered DMEM XF medium supplemented with 2 mM glutamine, 2 mM sodium pyruvate and 10 mM glucose. One μM oligomycin, 0.9 μM FCCP and 1 μM rotenone and antimycin A were injected into the media at different time points and OCR and ECAR were measured.
# Cells were finally lysed with 0.1 M NaOH and protein lysate was subsequently stained with Quick Start™ Bradford 1× Dye Reagent (500–0205, BioRad) to normalise results. All parameters were calculated according to manufacturer.
# MCF7 cells [3] = experiment: Mitochondrial staining (MitoTracker Deep Red, microscopy); format: cell-based, Human; conditions: 10 µM, 2 days or 5 days
# Protocol: One hundred thousand MCF7 cells were seeded onto coverslips in 12-well plates. When cells were attached, mDIVI1 and vehicle treatments were performed in triplicate. After 2 days and 5 days, mitochondria were labeled by incubating cells for 15 min at 37° C with 25 nM of MitoTracker DeepRed (M22426, Invitrogen) diluted in PBS ([…], Sigma). Then, cells were washed with PBS, fixed in 2% paraformaldehyde (28908, Thermo Scientific) in PBS for 30 minutes at room temperature and mounted with ProLong® Gold Antifade Mountant reagent with DAPI (P36935, Invitrogen, Inc.). Immunofluorescence pictures were taken in a Leica gated Stimulated Emission Depletion Microscopy (gSTED) with additional confocal and multi-photon illumination (room rg106).
# A549 lung cancer = experiment: Tumorsphere formation assay, A549; format: cell-based; conditions: five days
# Protocol: A single cell suspension was prepared using enzymatic (1× Trypsin-EDTA, T3924, Sigma Aldrich), and manual disaggregation (25 gauge needle). Cells were plated at a density of 5000 cells/well in tumorsphere media (DMEM-F12/B27/EGF (20ng/ml)/Pen-Strep) in non-adherent conditions, in 6-well plates coated with (2-hydroxyethylmethacrylate) (poly-HEMA, P3932, Sigma) in the presence of mDIVI1 or vehicle. After 5 days of culture in a humidified incubator at 37° C, tumorspheres bigger than 50 μm were counted using an eye piece graticule.
# MCF7 cells [4] = experiment: Scratch assay (wound closure); format: cell-based, Human; conditions: 48 hours
# Protocol: A hundred thousand MCF7 cells per well were seeded in 12-well plates. When cells were attached, a horizontal scratch was performed using the tip of a pipette. Immediately after, the media was removed and either fresh vehicle-containing media or mDIVI1-containing media were added to the cells for 48 hours. Four replicates were used for each condition. Cells were incubated in a 5% CO2 atmosphere at 37° C in an Incucyte ZOOM System (Essen Bioscience). The wound closure was monitored by taking pictures of each well every 4 hours. At the end of the treatment, pictures of the wells at 0 and 48 hours were analysed using ImageJ software to calculate wound closure according to the following formula: Percentage wound closure=[(wound area0h−wound area48h)/wound area0h]×100
# Hedgehog signalling = experiment: Luciferase reporter assay MCF7-GFP-GLI(luc); format: cell-based, Human; conditions: 50 µM, 2 and 5 days
# Protocol: (§1) The Cignal Lenti reporter assay (luc) was used to monitor the activity of several signalling pathways in MCF7-GFP cells as explained previously. Luciferase Assay System (E1501, Promega) was performed according to manufacturer’s instructions. 1 × 10^4 MCF7 were seeded in black-walled 96 well plates. When cells were attached, drug treatments were added for 18, 48 hours and 5 days. After treatment, Luciferase Assay was performed according to manufacturer’s instructions and light signal was acquired in the Xenogen VivoVision IVIS Lumina. Results were normalized by SRB staining of cells grown in 96-well plates in parallel.
# (§2) SRB (S9012, Sigma) measures total biomass by staining cellular proteins. After treatment, cells were fixed in 10% tricloroacetic acid (T9159, Sigma) for 1 hour at 4° C, stained with SRB (S9012, Sigma) for 15 minutes, and washed 3 times with 1% acetic acid (27225, Sigma). The incorporated die was solubilized with 10 mM Tris Base, pH 8.8 (T1503, Sigma). Absorbance was spectrophotometrically measured at 562 nm in a FluoStar Omega plate reader (BMG Labtech). Background measurements were subtracted from all values.
# TGFβ signalling = experiment: Luciferase reporter assay MCF7-GFP-SMAD(luc); format: cell-based, Human; conditions: 50 µM, 2 and 5 days
# Protocol: as §1, §2
# MCF7 cells [5] = experiment: CD24/CD44 expression (FACS); format: cell-based, Human
# Protocol: (§3) Following mDIVI1 treatment, MCF7 cells grown either in suspension or as monolayers were analysed for their expression of CD24 and CD44. The surviving fraction after 2 days and 5 days of growth was analyzed by FACS. MCF7 cells were either trypsinised or spun down and trypsinised and incubated with CD24 (IOTest CD24-PE, Beckman Coulter) and CD44 (APC mouse anti-human CD44, 559942, BD Pharmingen) for 15 minutes on ice. Cells were then rinsed twice in PBS, spun down, and resuspended with DAPI dye (D1306, Molecular probes) at 3 μM in PBS for 10 minutes. Samples were then analyzed by FACS (Fortessa, BD Bioscence). Only the live cell population, identified using the DAPI staining, was analyzed for CD24/CD44 expression. Data were analyzed using FlowJo software.
# MCF7 cells [6] = experiment: DAPI viability of cells in suspension (anoikis resistance, FACS); format: cell-based, Human
# Protocol: as §3
# MCF7 cells [7] = experiment: DAPI immunofluorescence staining (binucleated cells); format: cell-based, Human; conditions: 50 µM; data not shown
smiles,measurement,setting,value
"COc1cc(-n2c(=S)[nH]c3ccccc3c2=O)c(Cl)cc1Cl [mDIVI1, 3-(2,4-Dichloro-5-methoxyphenyl) 2,3-dihydro 2-thioxo-4(1H) quinazolinone]",effect on MCF7 cell viability,"MCF7 cells [1]; 10 µM, 48 hours",did not decrease viability
same,reduction of MCF7 cell viability,"MCF7 cells [1]; 10 µM, five days",20%
same,reduction of MCF7 cell viability,"MCF7 cells [1]; 50 µM, 48 hours",20%
same,reduction of MCF7 cell viability,"MCF7 cells [1]; 50 µM, five days",over 65%
same,reduction of MCF7 cell viability,"MCF7 cells [1]; 100 µM, 48 hours",20%
same,reduction of MCF7 cell viability,"MCF7 cells [1]; 100 µM, five days",85%
same,effect on MCF7 protein content,"MCF7 cells [2]; 10 µM, 48 hours",slightly decreased
same,effect on MCF7 protein content,"MCF7 cells [2]; 20 µM, 2 days",significantly reduced
same,reduction of MCF7 protein content,"MCF7 cells [2]; 50 µM, 48 hours",~40%
same,mitochondrial morphology,MCF7 cells [3],more interconnected mitochondria
same,decrease of A549 tumorsphere forming capacity,A549 lung cancer; 10 µM,> 15%
same,decrease of A549 tumorsphere forming capacity,A549 lung cancer; 50 µM,> 80%
same,reduction of percentage of wound closure vs vehicle,MCF7 cells [4]; 10 µM,14%
same,reduction of percentage of wound closure vs vehicle,MCF7 cells [4]; 50 µM,44%
same,Hedgehog/GLI pathway luciferase activity,Hedgehog signalling,strikingly caused the inhibition
same,TGFβ/SMAD pathway luciferase activity,TGFβ signalling,strikingly caused the inhibition
same,CD24−/CD44+ subpopulation,"MCF7 cells [5]; 50 µM, in suspension",significantly increased
same,abundance of CD24−/CD44+ subpopulation,"MCF7 cells [5]; 10 or 50 µM, cells grown as monolayers, vs vehicle",not reduced
same,amount of CD24−/CD44+ cells,"MCF7 cells [5]; cells in suspension, dose-dependent",unexpectedly increased
same,cell viability under anchorage-independent conditions (DAPI) vs vehicle,MCF7 cells [6],no significant differences
same,binucleated cells (failure of cytokinesis),MCF7 cells [7],increase in binucleated cells
